Laboratory results published in the supplement of paper PMC10627819.

Key:
Experiment in all cases: fitness (endpoint OD595 vs no drug) (fraction); higher = more growth
[1] = system: S. aureus Newman
Summary of the method: (§1)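 With the first reading as background, OD595 was measured every 30 min for 14 h in 384-well plates kept at 37 °C and inoculated at OD595 0.01. TSB, LB Lennox or CY was the medium. Fitness is the optical density at the transition into stationary phase divided by the robust mean of no-drug control wells, with a cap of 1.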

[2] = system: S. pneumoniae D39V
Summary of the method: as §1

[3] = system: S. aureus DSM 20231
Summary of the method: as §1

[4] = system: B. subtilis 168
Summary of the method: as §1
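Further: OD595 on entry to stationary phase over no-drug wells; at most 1.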

CCC[C@@H]1C[C@@H](C(=O)N[C@@H]([C@H]2O[C@H](SC)[C@H](O)[C@@H](O)[C@H]2O)[C@H](C)Cl)N(C)C1 [Clindamycin] + CO/N=C(\C(=O)N[C@@H]1C(=O)N2C(C(=O)O)=C(COC(C)=O)CS[C@H]12)c1csc(N)n1 [Cefotaxime]
one replicate
Settings | fitness
[1], first compound 0.0312 µg/mL, partner 0.039 µg/mL | 0.525
[1], first compound 0.0312 µg/mL, partner 0.312 µg/mL | 0.128
[1], first compound 0.0625 µg/mL, partner 0.039 µg/mL | 0.161
[1], first compound 0.0625 µg/mL, partner 0.312 µg/mL | 0.0773
[1], first compound 0.125 µg/mL, partner 0.039 µg/mL | 0.0501
[1], first compound 0.125 µg/mL, partner 0.312 µg/mL | 0.113
[4], first compound 0.0039 µg/mL, partner 0.0625 µg/mL | 0.681
[4], first compound 0.0039 µg/mL, partner 0.125 µg/mL | 0.531
[4], first compound 0.0039 µg/mL, partner 0.25 µg/mL | 0.442
[4], first compound 0.0078 µg/mL, partner 0.0625 µg/mL | 0.62
[4], first compound 0.0078 µg/mL, partner 0.125 µg/mL | 0.482
[4], first compound 0.0078 µg/mL, partner 0.25 µg/mL | 0.389
[4], first compound 0.0156 µg/mL, partner 0.0625 µg/mL | 0.485
[4], first compound 0.0156 µg/mL, partner 0.125 µg/mL | 0.406
[4], first compound 0.0156 µg/mL, partner 0.25 µg/mL | 0.314
[4], first compound 0.0625 µg/mL, partner 0.00775 µg/mL | 0.473
[4], first compound 0.0625 µg/mL, partner 0.0155 µg/mL | 0.389
[4], first compound 0.0625 µg/mL, partner 0.031 µg/mL | 0.343
[4], first compound 0.125 µg/mL, partner 0.00775 µg/mL | 0.339
[4], first compound 0.125 µg/mL, partner 0.0155 µg/mL | 0.304
[4], first compound 0.125 µg/mL, partner 0.031 µg/mL | 0.3
[4], first compound 0.25 µg/mL, partner 0.00775 µg/mL | 0.33
[4], first compound 0.25 µg/mL, partner 0.0155 µg/mL | 0.254
[4], first compound 0.25 µg/mL, partner 0.031 µg/mL | 0.111

Settings | fitness
[1], first compound 0.0312 µg/mL, partner 0.078 µg/mL | 0.437
[1], first compound 0.0312 µg/mL, partner 0.156 µg/mL | 0.351
[1], first compound 0.0312 µg/mL, partner 0.625 µg/mL | 0.055
[1], first compound 0.0312 µg/mL, partner 1.25 µg/mL | 0.036
[1], first compound 0.0312 µg/mL, partner 2.5 µg/mL | 0.0433
[1], first compound 0.0625 µg/mL, partner 0.078 µg/mL | 0.223
[1], first compound 0.0625 µg/mL, partner 0.156 µg/mL | 0.114
[1], first compound 0.0625 µg/mL, partner 0.625 µg/mL | 0.0368
[1], first compound 0.0625 µg/mL, partner 1.25 µg/mL | 0.0614
[1], first compound 0.0625 µg/mL, partner 2.5 µg/mL | 0.0509
[1], first compound 0.125 µg/mL, partner 0.078 µg/mL | 0.0724
[1], first compound 0.125 µg/mL, partner 0.156 µg/mL | 0.0344
[1], first compound 0.125 µg/mL, partner 0.625 µg/mL | 0.0721
[1], first compound 0.125 µg/mL, partner 1.25 µg/mL | 0.0661
[1], first compound 0.125 µg/mL, partner 2.5 µg/mL | 0.0579
[2], first compound 0.0125 µg/mL, partner 0.0018 µg/mL | 0.792
[2], first compound 0.0125 µg/mL, partner 0.0035 µg/mL | 0.812
[2], first compound 0.0125 µg/mL, partner 0.007 µg/mL | 0.763
[2], first compound 0.015 µg/mL, partner 0.0018 µg/mL | 0.889
[2], first compound 0.015 µg/mL, partner 0.0035 µg/mL | 0.908
[2], first compound 0.015 µg/mL, partner 0.007 µg/mL | 0.803
[2], first compound 0.025 µg/mL, partner 0.0018 µg/mL | 0.573
[2], first compound 0.025 µg/mL, partner 0.0035 µg/mL | 0.549
[2], first compound 0.025 µg/mL, partner 0.007 µg/mL | 0.503
[2], first compound 0.03 µg/mL, partner 0.0018 µg/mL | 0.709
[2], first compound 0.03 µg/mL, partner 0.0035 µg/mL | 0.666
[2], first compound 0.03 µg/mL, partner 0.007 µg/mL | 0.569
[2], first compound 0.05 µg/mL, partner 0.0018 µg/mL | 0.256
[2], first compound 0.05 µg/mL, partner 0.0035 µg/mL | 0.253
[2], first compound 0.05 µg/mL, partner 0.007 µg/mL | 0.184
[2], first compound 0.06 µg/mL, partner 0.0018 µg/mL | 0.374
[2], first compound 0.06 µg/mL, partner 0.0035 µg/mL | 0.354
[2], first compound 0.06 µg/mL, partner 0.007 µg/mL | 0.288
[3], first compound 0.0625 µg/mL, partner 0.312 µg/mL | 0.11
[3], first compound 0.125 µg/mL, partner 0.039 µg/mL | 0.0991
[3], first compound 0.125 µg/mL, partner 0.078 µg/mL | 0.0447
[3], first compound 0.125 µg/mL, partner 0.156 µg/mL | 0.0526
[3], first compound 0.125 µg/mL, partner 0.312 µg/mL | 0.0465
[4], first compound 0.0625 µg/mL, partner 0.5 µg/mL | 0.138
[4], first compound 0.0625 µg/mL, partner 1 µg/mL | 0.0488
[4], first compound 0.0625 µg/mL, partner 2 µg/mL | 0.0865
[4], first compound 0.125 µg/mL, partner 0.5 µg/mL | 0.096
[4], first compound 0.125 µg/mL, partner 1 µg/mL | 0.0462
[4], first compound 0.125 µg/mL, partner 2 µg/mL | 0.0669
[4], first compound 0.25 µg/mL, partner 0.5 µg/mL | 0.0789
[4], first compound 0.25 µg/mL, partner 1 µg/mL | 0.0542
[4], first compound 0.25 µg/mL, partner 2 µg/mL | 0.0739
